The results in this text go back to patent US11584727B2, “2-thioxothiazolidin-4-one derivatives active as transthyretin ligands and uses thereof” (BSIM Therapeutics, S.A., priority 2014, dated 2023).

Each structure is given as a SMILES string.

In assay [1] the target is Val122Ile transthyretin (V122I-TTR) (Homo sapiens, UniProt P02766, V142I). The experiment in a line: V122I-TTR amyloid fibril formation assay (turbidimetry, acid-induced). The conditions noted are these: pH 4.4, 72 hours; for Fibril Formation (%): V122I-TTR 3.6 μM, 37° C. It is filed as biochemical.
Another assay addresses T1, transthyretin (TTR) (Homo sapiens, UniProt P02766).
T1 construct: from tissue; host or cells: human plasma
The experiment in a line: Thyroxine (T4) binding competition by gel electrophoresis in plasma, TTR band. The conditions noted are these: for T4 bound to TTR: human plasma, [125I]T4, in presence of compound. The protocol:
(§1) Briefly, upon incubation of human plasma in the presence of the test compounds and radio-labeled T4 ([125I]T4), the samples are subjected to native PAGE. After electrophoresis, the gels are dried, subjected to phosphor imaging, and the intensity of the protein bands is then compared. […] The intensity of the bands decreases, as compared to the control samples (absence of compound), if the compound binds to the protein(s) competing with T4.
FIG. 24 presents the results of these experiments, where the bands in the gel correspond to the major T4 binding plasma proteins. The intensity of the bands decreases, as compared to the control samples (absence of compound), if the compound binds to the protein(s) competing with T4. The results were analyzed by calculation of the TTR/total (TTR+ALB+TBG) ratio for each sample collected at different time points. The displacement of T4 from TTR is calculated and plotted as the difference between the average of ratios of TTR/total protein for each control sample and the average of the ratios of TTR/total protein.
The assay for the binding to TTR through competition with T4 is performed by T4 binding gel electrophoresis as previously described in reference.
Five (5) μL of human plasma plus 0.25-0.5 μL of [125I]T4 (specific radioactivity 1250 μCi/m; concentration 320 μCi/mL; Perkin Elmer, Boston, Mass., U.S.A.) plus 5 μL of PBS with glycerol 50% are incubated for 1 hour at room temperature (RT) and the samples are subjected to native PAGE. After electrophoresis, the gels are dried, subjected to phosphor imaging (Typhoon 8600; Molecular Diagnostics, Amersham Biosciences), and analyzed using the ImageQuant program version 5.1. The intensity of the protein bands is compared. […]
The results are analyzed by calculation of the TTR/total (TTR+ALB+TBG) ratio for each sample collected at different time points. The displacement of T4 from TTR is calculated as the difference between the average of ratios of TTR/total protein for each control sample and the average of the ratios of TTR/total protein.

The target of another assay is T2, albumin (ALB) (Homo sapiens, UniProt P02768).
T2 construct: from tissue; host or cells: human plasma
T2 sequence (P02768 25-609): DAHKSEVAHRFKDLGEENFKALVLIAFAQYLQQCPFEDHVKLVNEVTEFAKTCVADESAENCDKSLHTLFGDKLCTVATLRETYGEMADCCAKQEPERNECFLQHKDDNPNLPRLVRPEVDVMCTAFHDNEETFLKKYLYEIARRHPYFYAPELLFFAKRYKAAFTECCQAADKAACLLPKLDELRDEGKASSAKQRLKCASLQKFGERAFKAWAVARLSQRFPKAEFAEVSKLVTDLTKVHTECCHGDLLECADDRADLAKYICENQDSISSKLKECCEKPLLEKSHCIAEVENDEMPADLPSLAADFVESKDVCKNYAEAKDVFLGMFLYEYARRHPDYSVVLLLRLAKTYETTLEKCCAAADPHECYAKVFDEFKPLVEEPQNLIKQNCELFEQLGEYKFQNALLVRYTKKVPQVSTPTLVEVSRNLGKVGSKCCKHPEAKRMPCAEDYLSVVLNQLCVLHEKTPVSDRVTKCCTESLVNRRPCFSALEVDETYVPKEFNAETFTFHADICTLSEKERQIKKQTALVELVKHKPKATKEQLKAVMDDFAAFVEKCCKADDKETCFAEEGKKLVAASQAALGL
The experiment in a line: Thyroxine (T4) binding competition by gel electrophoresis in plasma, albumin band. The conditions noted are these: [125I]T4, in presence of compound. The protocol:
as §1
FIG. 24 presents the results of these experiments, where the bands in the gel correspond to the major T4 binding plasma proteins. […] The results were analyzed by calculation of the TTR/total (TTR+ALB+TBG) ratio for each sample collected at different time points. The displacement of T4 from TTR is calculated and plotted as the difference between the average of ratios of TTR/total protein for each control sample and the average of the ratios of TTR/total protein. […]
Five (5) μL of human plasma plus 0.25-0.5 μL of [125I]T4 (specific radioactivity 1250 μCi/m; concentration 320 μCi/mL; Perkin Elmer, Boston, Mass., U.S.A.) plus 5 μL of PBS with glycerol 50% are incubated for 1 hour at room temperature (RT) and the samples are subjected to native PAGE. After electrophoresis, the gels are dried, subjected to phosphor imaging (Typhoon 8600; Molecular Diagnostics, Amersham Biosciences), and analyzed using the ImageQuant program version 5.1. […]

On to `O=C(O)c1ccc2nc(-c3cc(Cl)cc(Cl)c3)oc2c1` [Tafamidis, reference compound], for which the “Fibril Formation (%)” value in assay [1] was determined as 49%. On transthyretin (TTR), the “T4 bound to TTR” value was determined as 14.4%. In addition, on albumin (ALB), the “T4 bound to ALB” value amounted to 32.0%.
Regarding `COc1cc(/C=C2\SC(=S)N(CC(=O)O)C2=O)cc(Cl)c1O` [AT50-A00 (Z), (Z)-3-hydroxycarbonylmethyl-5-(3′-chloro-4′-hydroxy-5′-methoxyphenylmethylidene)-2-thioxothiazolidin-4-one], the “Fibril Formation (%)” value in assay [1] is 52%. Further, in assay [1] (V122I-TTR fixed at 3.6 μM, ten compound concentrations), the IC50 (in general, the concentration that inhibits the measured activity by half) is 3.73 µM. For the same compound, the “competition with T4 (in words)” value on transthyretin (TTR) (T4 competition and gel electrophoresis) is “competes with T4”. Also, the “T4 bound to TTR” value on transthyretin (TTR) amounted to 14.2%. On albumin (ALB), the “T4 bound to ALB” value came to 31.5%.
